Results from US20080139794A1, “Accelerants for the modification of non-natural amino acids and non-natural amino acid polypeptides” (Ambrx, Inc., priority 2005, published 2008).

Assays:
[1] = tested on: hGH with para-acetylphenylalanine substituted for tyrosine at position 35 (hGH-pAcF), oxime formation with mono hydroxylamine 30 K PEG; assay: Screening of potential accelerants using 30 K PEG hGH-pAcF conjugation (SDS-PAGE); set-up: species or system human; details: 50 mM accelerant; hGH 8 mg/ml; hGH:PEG 1:2; 28° C.; 16 hours
Protocol: Human growth hormone (hGH) with para-acetylphenylalanine substituted for tyrosine at position 35 was used to screen a panel of 20 compounds (FIG. 5). hGH was buffer exchanged into hGH reaction buffer (20 mM NaOAc, 20 mg/ml glycine, 5 mg/ml Mannitol, 1 mM EDTA, pH 4.0) using a PD 10 column, and concentrated to 10 mg/ml using a Centrocon (10 K MWCO) concentrator. hGH (10 μl) was mixed with 3.6 μl mono hydroxylamine 30 K PEG (2.5 mM), 3 μl of potential accelerant solution (200 mM in hGH reaction buffer) and buffer to give a final volume of 30 μl. The molar ratio of hGH:PEG was 1:2. The reaction mixtures were incubated at 28° C. for 16 hours and 36 hours and analyzed by SDS-PAGE (FIG. 6). The last lane in each gel was a control reaction (no accelerant). Compounds 6, 7, 8, 10, and 20 were accelerants. Two compounds from the panel, compounds 7 and 20 (acetic hydrazide) (pictured in FIG. 5), were accelerants and were further evaluated under similar reaction conditions with a higher hGH protein concentration (8 mg/ml). Lane 1 was a reaction mixture with a hGH:PEG molar ratio of 1:2 and 50 mM of accelerant compound 7. Lane 2 was a reaction mixture with a hGH:PEG molar ratio of 1:2 and 50 mM of accelerant compound 20. Lane 3 was a reaction mixture with a hGH:PEG molar ratio of 1:2 with no accelerant. Lane 4 was a reaction mixture with a hGH:PEG molar ratio of 1:5 with no accelerant.

wild type hGH = wild type hGH (Homo sapiens, UniProt P01241); assay: LCMS analysis of hGH after incubation with accelerant; details: wild type hGH 5.8 mg/ml; up to 200 mM accelerant; 28° C.; 48 hour
Protocol: In hGH reaction buffer, wild type hGH (5.8 mg/ml) was incubated with various concentrations of the accelerant acetic hydrazide (200 mM, 100 mM, 50 mM, 25 mM, 12.5 mM, 6.25 mM and 0 mM) at 28° C. for 48 hours. The accelerant was removed through dialysis (10 k MWCO). The resulting protein solutions were analyzed by LCMS (FIG. 8).]
The measured molecular weights of hGH in all the conditions are same and match theoretical value 22256.

scFv 108 259-pAcF [2] = assay: One step dimerization of scFv-pAcF with homobifunctional 2 K hydroxylamine PEG linker (SDS-PAGE); details: 47 mM acetic hydrazide; 147 μM homobifunctional 2 K PEG linker; pH 4.0; 28° C.; without accelerant very little dimer after 20 hours
Protocol: Single chain Fv (scFv) 108 protein with para-acetylphenylalanine substituted at position 259 (scFv 108 259-pAcF) was used the following conjugation experiment. scFv 108 259-pAcF in storage buffer was buffer exchanged into reaction buffer (150 mM NaCl, 20 mM NaOAc, 5 mM EDTA, pH 4.0) using a PD 10 column. The protein solution was concentrated to 0.5 mM, mixed with hydroxylamine homobifunctional 2 K PEG linker 2.5 mM stock solution and supplemented with acetic hydrazide as accelerant. The final reaction mixture consisted of 147 μM homobifunctional 2 K PEG linker, the corresponding concentration of pAcF-substituted scFv and 47 mM acetic hydrazide. The reaction mixtures were incubated at 28° C. and analyzed at different time points (6 hours, 20 hours, 44 hours) by SDS-PAGE (FIG. 2).
To make the one-step reaction more efficient and more practical with the homobifunctional 2 K PEG linker, accelerants were used to facilitate the dimerization process. Without accelerant, very little dimer product could be detected after 20 hours by SDS-PAGE. Lane 4 of the 6 hour, 20 hour, and 44 hour gels show reaction mixtures with a scFv:PEG linker molar ratio of 2.0:1 without the accelerant acetic hydrazide. […] Lane 1 of the 6 hour, 20 hour, and 44 hour gels show reaction mixtures with a scFv:PEG linker molar ratio of 1.6:1 with acetic hydrazide. […]

scFv 108 259-pAcF [3] = assay: Mono hydroxylamine 30 K PEG and scFv-pAcF conjugation (SDS-PAGE); details: 28° C.
Protocol: scFv 108 259-pAcF 0.5 mM stock solution in reaction buffer mentioned above (10 μl) is mixed with various amounts of mono hydroxylamine 30 K PEG 2.5 mM stock solution, 2.2 μl of 200 mM acetic hydrazide stock solution and reaction buffer. The reaction mixtures with a final reaction volume of 22 μl have different molar ratios of scFv:PEG (1:3 or 1:5). The accelerating effect of acetic hydrazide on conjugation of mono hydroxylamine 30 K PEG and scFv was evaluated at protein and PEG molar ratio of 1:3 and 1:5 with and without accelerant. The reaction mixtures were incubated at 28° C. and were analyzed at different time points (20 hours, 44 hours) by SDS-PAGE (FIG. 3). Lanes 1, 2, and 3 show 100%, 20%, and 10% of the starting scFv-pAcF, respectively. Lane 4 of the 20 hour and 44 hour gels show reaction mixtures with a scFv:PEG molar ratio of 1:3 with 20 mM acetic hydrazide. Lane 5 of the 20 hour and 44 hour gels show reaction mixtures with a scFv:PEG molar ratio of 1:3 without accelerant. Lane 6 of the 20 hour and 44 hour gels show reaction mixtures with a scFv:PEG molar ratio of 1:5 with 20 mM acetic hydrazide. […]
Similarly, the relative conjugation efficiency of different concentrations of the accelerant acetic hydrazide (5 mM, 20 mM, 80 mM) with a scFv:30 K PEG mono hydroxylamine molar ratio of 1:2 were evaluated (FIG. 4). […]

Sequence of wild type hGH (P01241 with tags, fused parts or gaps): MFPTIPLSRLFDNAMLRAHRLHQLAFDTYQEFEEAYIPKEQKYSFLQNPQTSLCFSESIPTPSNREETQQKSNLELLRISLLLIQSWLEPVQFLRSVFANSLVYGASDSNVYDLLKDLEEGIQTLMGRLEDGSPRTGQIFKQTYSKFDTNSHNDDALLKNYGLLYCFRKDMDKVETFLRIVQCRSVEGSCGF

CC(=O)NN [Compound 20, acetic hydrazide]
acceleration of hGH-pAcF / 30 K PEG conjugation at higher protein concentration [1]: shown to catalyze the reaction
covalent modification of protein by accelerant (LCMS) (wild type hGH): no covalent modification could be detected
dimer product formation (scFv 108 259-pAcF [2]): the dimer product appeared after 6 hours
relative conjugation efficiency at different accelerant concentrations (scFv 108 259-pAcF [3]; 5 mM, 20 mM, 80 mM acetic hydrazide, scFv:PEG 1:2): the higher concentration of accelerant, the faster the conjugation
accelerating effect on conjugation of mono hydroxylamine 30 K PEG and scFv (scFv 108 259-pAcF [3]; 20 mM acetic hydrazide, scFv:PEG 1:3 and 1:5, with and without accelerant, 20 hours, 44 hours): accelerates the conjugation reaction
